Results: patent US20240408027A1, “HIGH DRUG LOADING POLYMERS” (priority 2021, published 2024)

Assay: Drug loading of paclitaxel, etoposide, chloroquine into core library (Example 3)

CC(=O)O[C@H]1C(=O)[C@@]2(C)[C@H]([C@H](OC(=O)c3ccccc3)[C@]3(O)C[C@H](OC(=O)[C@H](O)[C@@H](NC(=O)c4ccccc4)c4ccccc4)C(C)=C1C3(C)C)[C@]1(OC(C)=O)CO[C@@H]1C[C@@H]2O [Paclitaxel, paclitaxel]
core composition at loading maximum (polymer:drug 1:1): 90 % B

CCN(CC)CCCC(C)Nc1ccnc2cc(Cl)ccc12 (stereo not drawn) [chloroquine]
loading trend with core composition (polymer:drug 1:1): increased loading with increasing H-bonding

COc1cc([C@@H]2c3cc4c(cc3[C@@H](O[C@@H]3O[C@@H]5CO[C@@H](C)O[C@H]5[C@H](O)[C@H]3O)[C@H]3COC(=O)[C@H]23)OCO4)cc(OC)c1O [etoposide]
LE+LC, fold higher in the absence of H-bonding groups in the core (100% B core): > 2 ×
